# Experimental data: patent publication US11237155B2, “Screening methods using olfactory receptors and novel compounds identified using the same” (MARS, INCORPORATED, priority 2016, dated 2022)
# Experiments:
# Type in all cases: cell-based
# [1] = test system: Cat OR5A1; test: CNG chAMPion assay, OR_9 (OR5A1), cat ortholog; settings: cat OR5A1, phase 3
# Protocol: chAMPion (CNG channel) assay. HEK293/CNG/nat-Clytin/RTP1 s endo cells were transiently transfected with plasmids encoding the respective OR and were seeded at 20,000 cells/well in 25 μL/well complete growth medium in poly-D-lysine coated black, clear-bottom 384 MTPs.
# Data were analyzed with the Screenworks® software (Molecular Devices, version 4.0.0.30). Luminescence values (in RLU) were exported as maximum RLU between 10 s and 40 s. In addition to using raw values, the data were also normalized to background signals (wells containing buffer only) and expressed as “Fold change” (mean value (n=2)/mean value of buffer wells (n=2)). Data analysis and plotting of graphs was carried out using Excel (Microsoft) and GraphPad Prism (GraphPad Software, Inc.).
# [2] = test system: Dog OR5A1; test: CNG chAMPion assay, OR_9 (OR5A1), dog ortholog; settings: dog OR5A1, phase 3
# From the text: This example refers to the functional expression of different feline and canine olfactory receptors (ORs). 20 OR sequences were selected, where 10 sequences have feline origins and the remaining 10 have canine origins. These ORs were subcloned into a modified expression vector suitable for the transient, functional expression of ORs. The transiently expressed receptors were then stimulated with various concentrations of different odorants aiming to deorphanize the feline and canine ORs. […] Functional expression of the different OR sets were transient in reporter cell line A or B. The transiently transfected ORs were stimulated with 3 concentrations (n=4) of different odorants (at least 3).
# chAMPion (CNG channel) assay. […]
# Twenty-four hours later, the cell medium was removed manually and cells were incubated in 20 μL/well coelenterazine (11 μM) in Tyrode buffer with 0 mM calcium for 3.5 h at 37° C. Plates were then read in a luminescence plate reader (FLIPR^TETRA, Molecular Devices) with the following camera settings: exposure time: 0.533 s, maximum gain. Luminescence was recorded for 1 min after addition of 10 μL/well compounds (3× solutions prepared in Tyrode buffer with 0 mM calcium), followed by an incubation period of 30 min at 37° C. Luminescence was again recorded for 1 min after addition of 20 μL/well Tyrode buffer with 10 mM CaCl2. […]
# [3] = target: T1, Human OR5A1 (Homo sapiens, UniProt Q8NGJ0); test: CRE-NanoLuc luciferase assay, OR_9 (OR5A1), human ortholog; settings: human OR5A1, phase 3
# T1 construct: expressed in transfected cells; host or cells: HEK293 PEAKrapid/RTP1s endo (reporter cell line A)
# T1 sequence (Q8NGJ0 1-315): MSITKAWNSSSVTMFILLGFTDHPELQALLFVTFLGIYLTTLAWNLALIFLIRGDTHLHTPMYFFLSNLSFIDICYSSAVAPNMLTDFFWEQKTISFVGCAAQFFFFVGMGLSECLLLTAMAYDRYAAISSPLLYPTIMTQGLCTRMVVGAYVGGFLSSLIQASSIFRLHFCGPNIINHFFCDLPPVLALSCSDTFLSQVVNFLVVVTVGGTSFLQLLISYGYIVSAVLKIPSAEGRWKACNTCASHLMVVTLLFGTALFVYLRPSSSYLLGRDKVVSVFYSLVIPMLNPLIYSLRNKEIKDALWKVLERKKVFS
"receptor response (dose-response, fold change) [1]",EC50 (rank among the four compounds) [2],"receptor response (dose-response, fold change) [3]",SMILES,Emax (rank among the four compounds) [2]
weaker responses,–,–,"CCCCCOC(C)=O [amyl acetate, Amyl acetate]",–
strong response,lowest EC50,responds,"CC(=O)/C=C/C1=C(C)CCCC1(C)C [β-ionone, beta-Ionone]",highest Emax

SMILES,"receptor response (dose-response, fold change) [1]",EC50 (rank among the four compounds) [2],"receptor response (dose-response, fold change) [3]",Emax (rank among the four compounds) [2]
"CC(C)=CCCC(C)=CC=O [citral, Citral]",no response,–,–,–
